Laboratory results from patent publication US11236078B2, “Heterocyclic inhibitors of the sodium channel” (priority 2014, dated 2022).

Legend:
Type in all cases: cell-based
human Nav1.7 (hNav1.7) [1] = target: T1, human Nav1.7 (hNav1.7) (Homo sapiens, UniProt Q15858); experiment: hNav1.7 slow inactivation block, manual patchclamp; conditions: HEK 293F cells stably expressing hNav1.7, slow inactivation induced in approximately 50% of channels
T1 construct: expressed in transfected cells
Source text: (§1) The generation of HEK 293F cell lines stably expressing human Nav1.7 (h Nav1.7), human Nav1.5 (hNav1.5) and rat Nav1.2 (r Nav1.2) was achieved by subcloning SCN9A, SCN5A, and SCN2A genes into inducible expression vectors followed by transfection into target cells using standard techniques. In the case of h Nav1.7, an expression vector encoding the human Navβ1 auxiliary subunit gene, SCN1B, was co-transfected with the expression vector bearing the SCN9A gene. Clones were selected using appropriate selection agents (0.3 mg/mL Zeocin and 0.8 mg/mL Geneticin) and maintained in Dulbecco's Modified Eagle medium, 10% fetal bovine serum, 1% non-essential amino acids to ˜80% confluence at 37° C. in a humidified incubator with 95% atmosphere and 5% CO2.
(§2) On the day of each experiment, cells that were grown to 80% confluence in a T75 flask were harvested for use on PatchXpress (Molecular Devices, CA, USA). Following a recovery period at 37° C. in a humidified incubator with 95% atmosphere and 5% CO2 in Dulbecco's Modified Eagle Medium, the media was replaced with an external recording solution containing (in mM): 90 TEACl, 50 NaCl, 1.8 CaCl2, 1 MgCl2, 10 HEPES, 10 glucose, adjusted to pH 7.4 with TEAOH and 300 mOsm with sucrose. The internal recording solution contained (in mM): 129 CsF, 2 MgCl2, 11 EGTA, 10 HEPES, 6 NaCl, 3 Na2ATP adjusted to pH 7.2 with CsOH and 280 mOsm with sucrose. The automated liquid handling facility of PatchXpress dispensed cells and added compound. Modulation of Nav1.7 channels by compounds was assessed by promoting the channels into the inactivated state using a conditioning voltage pulse of variable amplitude, followed by a brief hyperpolarizing pulse with a subsequent depolarized voltage step to measure the current amplitude in the presence and absence of compound.
(§3) In some cases, the potency of compounds was measured using either the Patchliner automated patch clamp platform (Nanion) or manual patch clamp techniques. Both approaches allowed the compounds to be characterized based upon the ability of a compound to modulate use- and/or state-dependence across human Nav1.7 (hNav1.7), human Nav1.5 (hNav1.5) and rat Nav1.2 (rNav1.2). The potency data is tabulated in Table 2 and is represented by six data fields. Three of the six fields represent potency data measured with the Patchliner automated platform under varying use- and state-dependent electrophysiology protocols similar to the PatchXpress protocols detailed above. For example, the second data column describes the potency of compounds in their ability to block 50% of Nav1.7 channels when the channel is repetitively activated by depolarizing voltage potentials to induce slow inactivation in approximately 50% of channels (Table 2: h Nav1.7: IC50 Slow Inactivation Block, Automated Patchclamp). The next three data fields describe the data generated from manual patchclamp electrophysiology measurements using similar methods to those employed for automated patchclamp studies.

rat Nav1.2 (rNav1.2) [2] = target: T2, rat Nav1.2 (rNav1.2) (Rattus norvegicus, UniProt P04775); experiment: rNav1.2 slow inactivation block, manual patchclamp; conditions: HEK 293F cells stably expressing rNav1.2
T2 construct: expressed in transfected cells
T2 sequence (P04775 whole entry): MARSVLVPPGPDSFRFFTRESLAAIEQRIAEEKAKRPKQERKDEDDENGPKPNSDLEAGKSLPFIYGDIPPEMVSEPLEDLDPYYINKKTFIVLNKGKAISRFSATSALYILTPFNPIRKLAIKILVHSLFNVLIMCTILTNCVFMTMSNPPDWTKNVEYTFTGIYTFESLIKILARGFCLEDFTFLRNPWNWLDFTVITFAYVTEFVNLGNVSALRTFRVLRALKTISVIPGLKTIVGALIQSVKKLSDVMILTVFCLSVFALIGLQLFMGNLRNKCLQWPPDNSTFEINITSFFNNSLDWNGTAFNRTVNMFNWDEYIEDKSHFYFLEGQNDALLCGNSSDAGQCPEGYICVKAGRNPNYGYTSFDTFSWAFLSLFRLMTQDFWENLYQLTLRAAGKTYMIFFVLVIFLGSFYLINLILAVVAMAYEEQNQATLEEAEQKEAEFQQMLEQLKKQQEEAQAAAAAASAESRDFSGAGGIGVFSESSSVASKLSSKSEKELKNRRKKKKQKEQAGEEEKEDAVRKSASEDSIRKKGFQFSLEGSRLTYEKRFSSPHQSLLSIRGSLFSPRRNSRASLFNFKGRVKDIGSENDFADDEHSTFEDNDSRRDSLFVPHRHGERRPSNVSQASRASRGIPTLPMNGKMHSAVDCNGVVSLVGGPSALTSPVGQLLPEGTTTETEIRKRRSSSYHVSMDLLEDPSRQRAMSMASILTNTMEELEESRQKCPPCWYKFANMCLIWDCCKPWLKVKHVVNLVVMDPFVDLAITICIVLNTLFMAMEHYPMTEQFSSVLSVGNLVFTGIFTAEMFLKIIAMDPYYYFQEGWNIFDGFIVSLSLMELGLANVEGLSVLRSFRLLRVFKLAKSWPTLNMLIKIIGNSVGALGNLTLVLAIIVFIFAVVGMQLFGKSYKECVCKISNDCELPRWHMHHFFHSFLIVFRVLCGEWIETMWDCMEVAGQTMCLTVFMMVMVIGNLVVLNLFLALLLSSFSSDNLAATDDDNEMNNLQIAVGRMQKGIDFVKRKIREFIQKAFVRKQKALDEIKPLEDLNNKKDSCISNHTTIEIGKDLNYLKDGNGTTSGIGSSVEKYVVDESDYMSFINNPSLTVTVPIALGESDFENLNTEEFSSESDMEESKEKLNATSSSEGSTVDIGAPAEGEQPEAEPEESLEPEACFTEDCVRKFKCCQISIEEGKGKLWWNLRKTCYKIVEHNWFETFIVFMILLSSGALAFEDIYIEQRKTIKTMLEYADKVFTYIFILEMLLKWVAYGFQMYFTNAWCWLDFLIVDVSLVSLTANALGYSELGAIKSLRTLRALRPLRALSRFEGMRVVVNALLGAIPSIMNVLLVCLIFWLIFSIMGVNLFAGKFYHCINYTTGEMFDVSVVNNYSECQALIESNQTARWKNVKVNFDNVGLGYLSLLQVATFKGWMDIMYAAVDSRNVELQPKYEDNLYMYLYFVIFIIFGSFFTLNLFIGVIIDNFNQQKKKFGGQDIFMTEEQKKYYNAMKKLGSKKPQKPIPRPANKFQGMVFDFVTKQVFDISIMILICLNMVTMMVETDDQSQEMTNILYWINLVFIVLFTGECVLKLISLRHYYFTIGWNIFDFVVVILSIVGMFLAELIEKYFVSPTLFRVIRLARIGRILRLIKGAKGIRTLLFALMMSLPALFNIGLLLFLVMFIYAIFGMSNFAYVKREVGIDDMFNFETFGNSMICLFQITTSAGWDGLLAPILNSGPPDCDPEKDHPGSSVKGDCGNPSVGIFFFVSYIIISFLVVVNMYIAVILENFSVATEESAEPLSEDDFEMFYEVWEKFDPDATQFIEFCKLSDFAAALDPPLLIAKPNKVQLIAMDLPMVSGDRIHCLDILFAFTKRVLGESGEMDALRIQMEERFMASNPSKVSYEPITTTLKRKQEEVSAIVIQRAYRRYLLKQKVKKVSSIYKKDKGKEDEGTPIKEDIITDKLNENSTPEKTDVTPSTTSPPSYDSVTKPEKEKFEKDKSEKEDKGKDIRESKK
Source text: as §1, §2, §3

rat Nav1.2 (rNav1.2) [3] = target: T2, rat Nav1.2 (rNav1.2); experiment: rNav1.2 slow inactivation block, automated patchclamp; conditions: HEK 293F cells stably expressing rNav1.2
Source text: as §1, §2, §3

human Nav1.7 (hNav1.7) [4] = target: T1, human Nav1.7 (hNav1.7); experiment: hNav1.7 slow inactivation block, automated patchclamp; conditions: HEK 293F cells stably expressing hNav1.7, slow inactivation induced in approximately 50% of channels
Source text: as §1, §2, §3

T1 sequence (Q15858 whole entry): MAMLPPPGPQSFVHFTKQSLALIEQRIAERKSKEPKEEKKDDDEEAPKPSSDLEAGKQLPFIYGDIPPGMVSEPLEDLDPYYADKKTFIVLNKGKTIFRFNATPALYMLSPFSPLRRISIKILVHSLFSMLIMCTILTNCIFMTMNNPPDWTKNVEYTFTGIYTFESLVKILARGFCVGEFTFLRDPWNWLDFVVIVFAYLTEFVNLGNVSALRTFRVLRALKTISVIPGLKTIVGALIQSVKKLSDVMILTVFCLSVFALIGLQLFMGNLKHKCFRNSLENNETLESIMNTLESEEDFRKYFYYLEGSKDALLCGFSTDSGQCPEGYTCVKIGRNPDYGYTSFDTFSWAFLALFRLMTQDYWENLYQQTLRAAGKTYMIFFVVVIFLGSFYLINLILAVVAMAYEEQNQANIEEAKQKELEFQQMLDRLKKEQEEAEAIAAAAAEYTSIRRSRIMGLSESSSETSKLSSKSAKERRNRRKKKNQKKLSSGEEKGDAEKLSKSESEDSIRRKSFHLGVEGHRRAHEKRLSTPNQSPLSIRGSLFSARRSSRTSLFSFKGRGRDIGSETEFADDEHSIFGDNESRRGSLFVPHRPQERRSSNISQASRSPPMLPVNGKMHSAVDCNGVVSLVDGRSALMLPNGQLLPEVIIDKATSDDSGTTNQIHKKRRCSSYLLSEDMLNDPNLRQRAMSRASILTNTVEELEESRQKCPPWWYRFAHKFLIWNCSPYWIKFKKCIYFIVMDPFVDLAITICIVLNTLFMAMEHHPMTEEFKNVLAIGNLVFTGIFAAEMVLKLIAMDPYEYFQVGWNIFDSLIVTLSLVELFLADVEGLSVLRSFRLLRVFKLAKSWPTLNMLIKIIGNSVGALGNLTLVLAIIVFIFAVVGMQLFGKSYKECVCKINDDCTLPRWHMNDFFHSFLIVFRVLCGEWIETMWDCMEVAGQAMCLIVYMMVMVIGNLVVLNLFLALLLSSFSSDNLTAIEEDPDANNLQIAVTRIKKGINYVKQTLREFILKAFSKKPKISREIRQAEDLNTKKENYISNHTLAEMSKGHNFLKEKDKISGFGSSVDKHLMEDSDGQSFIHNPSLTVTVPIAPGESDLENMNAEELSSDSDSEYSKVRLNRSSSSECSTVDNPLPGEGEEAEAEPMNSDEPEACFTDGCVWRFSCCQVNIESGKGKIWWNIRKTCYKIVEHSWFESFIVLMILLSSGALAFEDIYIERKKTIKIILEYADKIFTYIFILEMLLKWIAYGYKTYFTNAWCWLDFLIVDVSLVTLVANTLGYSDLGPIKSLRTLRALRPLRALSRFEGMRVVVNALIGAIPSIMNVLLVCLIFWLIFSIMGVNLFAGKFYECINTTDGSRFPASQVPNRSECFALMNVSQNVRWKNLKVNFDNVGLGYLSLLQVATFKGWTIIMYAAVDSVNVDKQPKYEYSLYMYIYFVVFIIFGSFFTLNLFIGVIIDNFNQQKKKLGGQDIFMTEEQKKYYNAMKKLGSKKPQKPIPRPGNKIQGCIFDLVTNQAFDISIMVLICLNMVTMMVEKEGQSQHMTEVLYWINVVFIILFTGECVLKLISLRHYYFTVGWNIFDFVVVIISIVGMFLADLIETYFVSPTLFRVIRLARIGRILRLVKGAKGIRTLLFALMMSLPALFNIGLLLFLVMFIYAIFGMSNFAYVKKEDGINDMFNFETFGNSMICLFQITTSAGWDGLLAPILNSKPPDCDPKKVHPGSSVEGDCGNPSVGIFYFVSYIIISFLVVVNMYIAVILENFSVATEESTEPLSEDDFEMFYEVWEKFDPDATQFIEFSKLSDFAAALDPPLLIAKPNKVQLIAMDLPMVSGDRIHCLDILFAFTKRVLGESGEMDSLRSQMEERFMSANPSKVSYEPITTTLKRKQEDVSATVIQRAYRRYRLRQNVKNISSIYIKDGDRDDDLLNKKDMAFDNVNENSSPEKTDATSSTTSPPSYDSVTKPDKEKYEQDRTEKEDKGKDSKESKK
T1 sequence (Q07699 19-218 partner): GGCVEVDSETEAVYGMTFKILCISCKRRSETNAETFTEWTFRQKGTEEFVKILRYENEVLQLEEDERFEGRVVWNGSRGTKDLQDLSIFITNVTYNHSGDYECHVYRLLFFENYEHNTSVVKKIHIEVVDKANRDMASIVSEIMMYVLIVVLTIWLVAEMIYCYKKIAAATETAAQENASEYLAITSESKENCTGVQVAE

| Compound | IC50 (human Nav1.7 (hNav1.7) [1]) [nM] | IC50 (rat Nav1.2 (rNav1.2) [2]) [nM] | IC50 (rat Nav1.2 (rNav1.2) [3]) [nM] | IC50 (human Nav1.7 (hNav1.7) [4]) [nM] |
| --- | --- | --- | --- | --- |
| O=C(NCc1cccc(-c2cc(C(F)(F)F)cc(C(F)(F)F)c2)c1)C1CC[C@@H](O)C1 (stereo partly drawn) [Example 64, (3R)-N-({3-[3,5-bis(trifluoromethyl)phenyl]phenyl}methyl)-3-hydroxycyclopentane-1-carboxamide] | 1570 | 961 | – | – |
| NC1(C(=O)NCc2cc(-c3cc(C(F)(F)F)cc(C(F)(F)F)c3)cc(C(F)(F)F)c2)CCCC1 [Compound 53, 1-amino-N-((3′,5,5′-tris(trifluoromethyl)-[1,1′-biphenyl]-3-yl)methyl)cyclopentane-1-carboxamide] | 225 | 120 | 1090 | 1880 |
| CNC(=O)c1cc(Oc2cc(F)c(S(=O)(=O)Nc3ncns3)cc2F)cc(C(F)(F)F)c1 [Compound 25, 3-{2,5-difluoro-4-[(1,2,4-thiadiazol-5-yl)sulfamoyl]phenoxy}-N-methyl-5-(trifluoromethyl)benzamide] | ~19200 | – | > 32000 | ~41800 |
| O=C(Cc1cc(F)c(Oc2cc(C(F)(F)F)cc(C(F)(F)F)c2)cc1F)Nc1ncns1 [Compound 22, 2-{4-[3,5-bis(trifluoromethyl)phenoxy]-2,5-difluorophenyl}-N-(1,2,4-thiadiazol-5-yl)acetamide] | > 3200 | – | > 32000 | > 32000 |
| CN(Cc1cccc(-c2cc(C(F)(F)F)cc(C(F)(F)F)c2)c1)C(=O)[C@@H]1CCCN1 [Compound 58, (2S)-N-({3-[3,5-bis(trifluoromethyl)phenyl]phenyl}methyl)-N-methylpyrrolidine-2-carboxamide] | 777 | 733 | 2750 | 2470 |
| CS(=O)(=O)NC(=O)c1cc(F)c(Oc2cc(C(F)(F)F)cc(C(F)(F)F)c2)cc1F [Compound 13, 4-[3,5-bis(trifluoromethyl)phenoxy]-2,5-difluoro-N-methanesulfonylbenzamide] | ~10300 | > 10000 | – | 19200 |
| COCc1nsc(NS(=O)(=O)c2cc(F)c(Oc3cc(OC)cc(C(F)(F)F)c3)cc2F)n1 [Compound 44, 2,5-difluoro-4-[3-methoxy-5-(trifluoromethyl)phenoxy]-N-[3-(methoxymethyl)-1,2,4-thiadiazol-5-yl]benzene-1-sulfonamide] | > 10000 | – | – | > 32000 |
| O=C(O)c1cc(Oc2cc(F)c(S(=O)(=O)Nc3ncns3)cc2F)cc(C(F)(F)F)c1 [Compound 23, 3-{2,5-difluoro-4-[(1,2,4-thiadiazol-5-yl)sulfamoyl]phenoxy}-5-(trifluoromethyl)benzoic] | > 10000 | > 10000 | > 32000 | > 32000 |
| O=C(Nc1nncs1)c1cc(F)c(Oc2cc(C(F)(F)F)cc(C(F)(F)F)c2)cc1F [Compound 15, 4-[3,5-bis(trifluoromethyl)phenoxy]-2,5-difluoro-N-(1,3,4-thiadiazol-2-yl)benzamide] | 4960 | 4320 | – | > 32000 |
| O=C(NCc1cccc(-c2cc(C(F)(F)F)cc(C(F)(F)F)c2)c1)C1CC[C@@H](F)C1 (stereo partly drawn) [Example 65, (3R)-N-({3-[3,5-bis(trifluoromethyl)phenyl]phenyl}methyl)-3-fluorocyclopentane-1-carboxamide] | 477 | 351 | – | – |
| O=S(=O)(Nc1ncns1)c1ccc(Oc2cc(C(F)(F)F)cc(C(F)(F)F)c2)c(F)c1 [Compound 11, 4-[3,5-bis(trifluoromethyl)phenoxy]-3-fluoro-N-(1,2,4-thiadiazol-5-yl)benzene-1-sulfonamide] | > 3200 | > 10000 | – | > 32000 |
| O=C(c1cc(Oc2cc(F)c(S(=O)(=O)Nc3ncns3)cc2F)cc(C(F)(F)F)c1)N1CCCC1 [Compound 39, 2,5-difluoro-4-{3-[(pyrrolidin-1-yl)carbonyl]-5-(trifluoromethyl)phenoxy}-N-(1,2,4-thiadiazol-5-yl)benzene-1-sulfonamide] | ~6930 | – | – | ~21700 |
| N#Cc1cc(S(=O)(=O)Nc2ncns2)ccc1Oc1cc(C(F)(F)F)cc(C(F)(F)F)c1 [Compound 14, 4-[3,5-bis(trifluoromethyl)phenoxy]-3-cyano-N-(1,2,4-thiadiazol-5-yl)benzene-1-sulfonamide] | 4940 | > 10000 | > 32000 | ~49000 |
| O=C(NCc1cc(-c2cc(C(F)(F)F)cc(C(F)(F)F)c2)cc(C(F)(F)F)c1)[C@@H]1C[C@H](F)CN1 [Compound 54, (2S,4S)-4-fluoro-N-((3′,5,5′-tris(trifluoromethyl)-[1,1′-biphenyl]-3-yl)methyl)pyrrolidine-2-carboxamide] | 741 | 744 | – | 5130 |
| O=C(NCc1cccc(-c2cc(C(F)(F)F)cc(C(F)(F)F)c2)c1)C1CC[C@H](O)C1 (stereo partly drawn) [Example 63, (3S)-N-({3-[3,5-bis(trifluoromethyl)phenyl]phenyl}methyl)-3-hydroxycyclopentane-1-carboxamide] | 2680 | 2370 | – | – |
| CCNC(=O)c1cc(Oc2cc(F)c(S(=O)(=O)Nc3ncns3)cc2F)cc(C(F)(F)F)c1 [Compound 35, 3-{2,5-difluoro-4-[(1,2,4-thiadiazol-5-yl)sulfamoyl]phenoxy}-N-ethyl-5 (trifluoromethyl)benzamide] | ~16200 | – | – | > 32000 |
| O=S(=O)(Nc1ccncn1)c1cc(F)c(Oc2cc(C(F)(F)F)cc(C(F)(F)F)c2)cc1F [Compound 18, 4-[3,5-bis(trifluoromethyl)phenoxy]-2,5-difluoro-N-(pyrimidin-4-yl)benzene-1-sulfonamide] | ~9760 | – | > 32000 | > 32000 |
| O=C(Nc1ncns1)c1cc(F)c(Oc2cc(C(F)(F)F)cc(C(F)(F)F)c2)cc1F [Compound 12, 4-[3,5-bis(trifluoromethyl)phenoxy]-2,5-difluoro-N-(1,2,4-thiadiazol-5-yl)benzamide] | ~5590 | > 3200 | – | > 32000 |
| O=S(=O)(Nc1nncs1)c1cc(F)c(Oc2cc(C(F)(F)F)cc(C(F)(F)F)c2)cc1F [Compound 8, 4-[3,5-bis(trifluoromethyl)phenoxy]-2,5-difluoro-N-(1,3,4-thiadiazol-2-yl)benzene-1-sulfonamide] | – | – | – | > 32000 |
| O=S(=O)(Nc1ncns1)c1ccc(Oc2cc(C(F)(F)F)cc(C(F)(F)F)c2)cc1 [Compound 6, 4-[3,5-bis(trifluoromethyl)phenoxy]-N-(1,2,4-thiadiazol-5-yl)benzene-1-sulfonamide] | ~39000 | > 10000 | – | – |
| N#Cc1cc(S(=O)(=O)Nc2nncs2)ccc1Oc1cc(C(F)(F)F)cc(C(F)(F)F)c1 [Compound 10, 4-[3,5-bis(trifluoromethyl)phenoxy]-3-cyano-N-(1,3,4-thiadiazol-2-yl)benzene-1-sulfonamide] | > 10000 | > 10000 | – | > 32000 |
| O=C(NCc1cc(F)c(Oc2ccccc2)cc1F)[C@@H]1CCCN1 [Compound 3, (2S)-N-[(2,5-difluoro-4-phenoxyphenyl)methyl]pyrrolidine-2-carboxamide] | 1340 | 1890 | – | 5780 |
| O=S(=O)(Nc1nncs1)c1ccc(Oc2cc(C(F)(F)F)cc(C(F)(F)F)c2)cc1 [Compound 7, 4-[3,5-bis(trifluoromethyl)phenoxy]-N-(1,3,4-thiadiazol-2-yl)benzene-1-sulfonamide] | – | – | – | > 32000 |
| O=S(=O)(Nc1ncns1)c1ccc(Oc2cc(C(F)(F)F)cc(C(F)(F)F)c2)c(Cl)c1 [Compound 16, 4-[3,5-bis(trifluoromethyl)phenoxy]-3-chloro-N-(1,2,4-thiadiazol-5-yl)benzene-1-sulfonamide] | – | > 10000 | > 32000 | 21100 |
| O=S(=O)(Nc1nccs1)c1ccc(Oc2cc(C(F)(F)F)cc(C(F)(F)F)c2)cc1 [Compound 9, 4-[3,5-bis(trifluoromethyl)phenoxy]-N-(1,3-thiazol-2-yl)benzene-1-sulfonamide] | – | – | – | ~29500 |
